Measurements taken from PMC7232442, “Biofilm Eradication by Symmetrical Selenoesters for Food-Borne Pathogens” (Microorganisms, 2020).
pIC50: −log10 of the molar value. Values after ≈ are worked out from the molar mass of the structure shown. “Also recorded” adds a separate entry of the source.

Tests used:
[1] = tested on: C. violaceum 026 sensor strain with AHL producer E. cloacae 31298 (violacein production); assay: Quorum sensing (QS) inhibition, parallel inoculation disk diffusion; type: cell-based, Chromobacterium violaceum; conditions: disc with 10 μL compound, starting concentration ½ MIC; 24–48 h
Protocol: The QS inhibitory effect of selenocompounds was examined on the AHL producer E. cloacae strain and C. violaceum sensor bacterial strain. These strains were inoculated in parallel. The QS inhibition was monitored by agar diffusion method on LB* agar plate as described previously. Filter paper discs (7.0 mm in diameter) were placed between the parallel inoculated strains and impregnated with 10 μL compounds. Starting concentration of the compounds was ½ MIC. The agar plates were incubated at room temperature (20 °C) for 24–48 h and the inhibition of violacein production was measured.

S. aureus MRSA 272123 [2] = assay: MIC determination by microdilution method; type: cell-based; conditions: Staphylococcus aureus; S. aureus MRSA 272123; read-out: MIC
Protocol: (§1) The minimum inhibitory concentrations (MICs) of compounds were determined according to the Clinical and Laboratory Standard Institute guidelines (CLSI). MIC values of the compounds were determined by visual inspection. The solvent was also assayed to ensure there was no antibacterial effect and the concentration (1 v/v%) applied in the assays had no antibacterial activity. DMSO was used at subinhibitory concentration (1 v/v%) in the assays.

[3] = tested on: Staphylococcus aureus ATCC 25923; assay: MIC determination by microdilution method; type: cell-based; conditions: S. aureus ATCC 25923
Protocol: as §1

[4] = tested on: S. Typhimurium SE03 ΔacrA; assay: Real-time ethidium bromide accumulation assay; type: cell-based, Salmonella enterica serovar Typhimurium; conditions: S. Typhimurium SE03 ΔacrA; ½ MIC; minute 60
Protocol: (§2) The impact of compounds on EB accumulation was determined by the automated EB method using a CLARIOstar Plus plate reader (BMG Labtech, UK). Firstly, the bacterial strain was incubated until it reached an optical density (OD) of 0.6 at 600 nm. The culture was washed with phosphate buffered saline (PBS; pH 7.4) and centrifuged at 13,000× g for 3 min, the cell pellet was re-suspended in PBS. The compounds were added at ½ MIC concentration to PBS containing a non-toxic concentration of EB (1 µg/mL). Then, 50 μL of the EB solution containing the compound were transferred into 96-well black microtiter plate (Greiner Bio-One Hungary Kft, Hungary), and 50 μL of bacterial suspension (OD600 0.6) were added to the each well. Then, the plates were placed into the CLARIOstar plate reader, and the fluorescence was monitored at excitation and emission wavelengths of 530 nm and 600 nm every minute for one hour on a real-time basis. From the real-time data, the activity of the compounds, namely the relative fluorescence index (RFI) of the last time point (minute 60) of the EB accumulation assay, was calculated according to the following formula:RFI = (RFtreated − RFuntreated)/RFuntreated(2) where RFtreated is the relative fluorescence (RF) at the last time point of EB retention curve in the presence of an inhibitor, and RFuntreated is the RF at the last time point of the EB retention curve of the untreated control having the solvent control (DMSO).

[5] = tested on: S. Typhimurium SE39 ΔtolC; assay: Real-time ethidium bromide accumulation assay; type: cell-based, Salmonella enterica serovar Typhimurium; conditions: S. Typhimurium SE39 ΔtolC; ½ MIC; minute 60
Protocol: as §2

[6] = tested on: MRC-5 human embryonal lung fibroblast cells; assay: Cytotoxicity assay (MTT); type: cell-based; conditions: MRC-5 cells
Protocol: The adherent MRC-5 human embryonal lung fibroblast cells were cultured in 96-well flat-bottomed microtiter plates, using EMEM supplemented with 10% heat-inactivated fetal bovine serum. The density of the cells was adjusted to 1 × 10^4 cells in 100 μL per well, the cells were seeded overnight at 37 °C, 5% CO2, then the medium was removed from the plates containing the cells, and the dilutions of selenocompounds previously made in a separate plate were added to the cells in 200 μL.
The culture plates were incubated at 37 °C for 24 h; at the end of the incubation period, 20 μL of MTT (thiazolyl blue tetrazolium bromide, Sigma) solution (from a stock solution of 5 mg/mL) was added to each well. After incubation at 37 °C for 4 h, 100 μL of sodium dodecyl sulfate (SDS; Sigma) solution (10% in 0.01 M HCI) was added to each well and the plates were further incubated at 37 °C overnight. Cell growth was determined by measuring the optical density (OD) at 540/630 nm with Multiscan EX ELISA reader (Thermo Labsystems, Cheshire, WA, USA). Inhibition of the cell growth was determined according to the formula below:IC50 = 100 − [(ODsample − ODmedium control)/(ODcell control − ODmedium control)] × 100(1)
Results are expressed in terms of IC50, defined as the inhibitory dose that reduces the growth of the cells exposed to the tested compounds by 50%.

[7] = tested on: S. Typhimurium SE01 Wild-Type; assay: MIC determination by microdilution method; type: cell-based, Salmonella enterica serovar Typhimurium; conditions: Salmonella enterica; S. Typhimurium SE01 wild-type; read-out: MIC
Protocol: as §1

[8] = tested on: S. Typhimurium SE02 ΔacrB; assay: MIC determination by microdilution method; type: cell-based, Salmonella enterica serovar Typhimurium; conditions: Salmonella enterica
Protocol: as §1

[9] = tested on: S. Typhimurium SE03 ΔacrA; assay: MIC determination by microdilution method; type: cell-based, Salmonella enterica serovar Typhimurium; conditions: Salmonella enterica
Protocol: as §1

[10] = tested on: S. Typhimurium SE39 ΔtolC; assay: MIC determination by microdilution method; type: cell-based, Salmonella enterica serovar Typhimurium; conditions: Salmonella enterica
Protocol: as §1

S. aureus ATCC 25923 [11] = assay: Real-time ethidium bromide accumulation assay; type: cell-based, Staphylococcus aureus; set-up: key to Relative Fluorescence Index (RFI): RFI = (RFtreated − RFuntreated)/RFuntreated at minute 60; conditions: for Relative Fluorescence Index (RFI): S. aureus ATCC 25923, ½ MIC, minute 60; for EPI activity (in words): reference (sensitive) S. aureus, 60 min
Protocol: as §2

S. aureus MRSA 272123 [12] = assay: Real-time ethidium bromide accumulation assay; type: cell-based, Staphylococcus aureus; conditions: for Relative Fluorescence Index (RFI): S. aureus MRSA 272123, ½ MIC, minute 60; for EPI activity (in words): resistant S. aureus MRSA, 60 min
Protocol: as §2

[13] = tested on: S. Typhimurium SE01 Wild-Type; assay: Real-time ethidium bromide accumulation assay; type: cell-based, Salmonella enterica serovar Typhimurium; conditions: ½ MIC, minute 60
Protocol: as §2

[14] = tested on: S. Typhimurium SE02 ΔacrB; assay: Real-time ethidium bromide accumulation assay; type: cell-based, Salmonella enterica serovar Typhimurium; conditions: S. Typhimurium SE02 ΔacrB; ½ MIC; minute 60
Protocol: as §2

S. aureus MRSA = assay: Biofilm formation using crystal violet; type: cell-based, Staphylococcus aureus
Protocol: (§3) The anti-biofilm effect of the tested compounds against S. aureus strains and wild-type S. Typhimurium SE01 was measured using crystal violet (CV; 0.1% (v/v)). This dye is used to detect the total biofilm biomass formed. Overnight cultures were diluted to OD of 0.1 at 600 nm in TSB medium. Then, the bacterial cultures were added to 96-well microtiter plates and the compounds were added at ½ MIC concentration. The final volume was 200 μL in each well. The microtiter plates were incubated at 30 °C for 48 h with gentle agitation (100 rpm). After the incubation period, TSB medium was discarded, and the plates were washed with tap water to remove unattached cells. Then 200 μL crystal violet was added to the wells and incubated for 15 min at room temperature. Then, CV was removed from the wells and the plates were washed again with tap water, and 200 μL of 70% ethanol was added to the wells. Finally, the biofilm formation was determined by measuring the OD at 600 nm using Multiscan EX ELISA plate reader (Thermo Labsystems, Cheshire, WA, USA). The anti-biofilm effect of compounds was expressed in the percentage (%) of decrease in biofilm formation.

[15] = tested on: reference S. aureus strain (ATCC 25923); assay: Biofilm formation using crystal violet; type: cell-based, Staphylococcus aureus
Protocol: as §3

S. aureus MRSA 272123 [16] = assay: Resistance modulation assay (checkerboard) with TET or CIP; type: cell-based, Staphylococcus aureus; conditions: for Interaction with CIP: MRSA strain; for X-fold reduction of MIC of CIP: S. aureus MRSA 272123, compound at ½ MIC, with CIP
Protocol: (§4) The resistance modulation effect of compounds with ciprofloxacin (CIP) and tetracycline (TET) antibiotics were evaluated by the checkerboard method on S. aureus strains. Briefly, CIP or TET was diluted in a 96-well microtiter plate by two-fold serial dilution in MH broth and then the compounds were added at subinhibitory concentrations (½ MIC). In this assay, only the tested compounds with well-defined MIC values were tested. Finally, 10^−4 dilution of the overnight bacterial culture in MH was added to each well. The final volume was 200 µL in each well. The microtiter plates were incubated at 37 °C for 18 h. MIC values in the presence of the antibiotics alone and in combination with Se-compounds were determined by visual inspection.

S. aureus ATCC 25923 [17] = assay: as above; type: cell-based, Staphylococcus aureus
Protocol: as §4

[18] = Staphylococcus aureus, ATCC25923

SMILES	QS zone of inhibition [1]	MIC (S. aureus MRSA 272123 [2])	MIC [3]	MIC [3, 18]	Relative Fluorescence Index (RFI) [4]	Relative Fluorescence Index (RFI) [5]	pIC50 ([6]; Homo sapiens, MRC5, 24 h)	pIC50 ([6]; 24 h)	MIC [7]	MIC [8]	MIC [9]	MIC [10]	Relative Fluorescence Index (RFI) (S. aureus ATCC 25923 [11])	EPI activity (in words) (S. aureus ATCC 25923 [11])	Relative Fluorescence Index (RFI) (S. aureus MRSA 272123 [12])	EPI activity (in words) (S. aureus MRSA 272123 [12])	Relative Fluorescence Index (RFI) [13]	Relative Fluorescence Index (RFI) [14]	Anti-biofilm effect (in words) (S. aureus MRSA)	Interaction with CIP (S. aureus MRSA 272123 [16])	further results
COC(=O)C[Se]C(=O)c1ccc(C(=O)[Se]CC(=O)OC)cc1 [Se-E1]	41 mm	100 µM (≈ 43.6 µg/mL)	12.5 µM (≈ 5.45 µg/mL)	12.5 µM (≈ 5.45 µg/mL)	0.03	0.15	< 4.12	4.11	> 100 µM	> 100 µM	> 100 µM	> 100 µM	0.98	effective	0.19	effective	−0.10	−0.03			
COC(=O)C[Se]C(=O)c1cc(C(=O)[Se]CC(=O)OC)cc(C(=O)[Se]CC(=O)OC)c1 [Se-E3]		100 µM (≈ 61.5 µg/mL)	12.5 µM (≈ 7.69 µg/mL)	12.5 µM (≈ 7.69 µg/mL)	0.27	0.25	< 4.12	4.12	> 100 µM	> 100 µM	> 100 µM	> 100 µM	4.15	most prominent EPI activity; also recorded: significantly effective pump inhibition	0.47	most prominent EPI activity; also recorded: significantly effective pump inhibition	0.26	0.08	significant biofilm inhibition	synergism	Anti-biofilm effect (in words) ([15]; sensitive (reference) S. aureus): significant biofilm inhibition; X-fold reduction of MIC of CIP (S. aureus MRSA 272123 [16]): 2 fold; X-fold reduction of MIC of TET (S. aureus ATCC 25923 [17]; S. aureus ATCC 25923, compound at ½ MIC, with TET): 2 fold; Interaction with TET (S. aureus ATCC 25923 [17]; methicillin-susceptible S. aureus ATCC 25923): synergism
CC(=O)C[Se]C(=O)c1ccc(C(=O)[Se]CC(C)=O)cc1 [Se-K1]	37 mm	1.56 µM (≈ 0.631 µg/mL)	0.39 µM (≈ 0.158 µg/mL)	0.39 µM (≈ 0.158 µg/mL)	0.17	0.27	6.27		50 µM (≈ 20.2 µg/mL)				0.1		−0.15		−0.16	0.10		synergism	X-fold reduction of MIC of CIP (S. aureus MRSA 272123 [16]): 2 fold
CC(=O)C[Se]C(=O)c1cccc(C(=O)[Se]CC(C)=O)c1 [Se-K2]	40 mm	1.56 µM (≈ 0.631 µg/mL)	0.39 µM (≈ 0.158 µg/mL)	0.39 µM (≈ 0.158 µg/mL)	0.20	0.26	5.87		50 µM (≈ 20.2 µg/mL)			100 µM (≈ 40.4 µg/mL)	0.11		−0.07		−0.04	0.13	promoted the biofilm formation		Biofilm inhibition ([15]; reference S. aureus, ½ MIC, 48 h): 30.3%
